Values after ≈ are worked out from the molar mass of the structure shown. Read-outs that look alike come from different tables or passages of the source.
Columns and labels:
[1] = tested on: rabbit duodenal smooth muscle; test: In vitro prokinetic activity: contraction of smooth muscle strips isolated from rabbit small intestine (duodenum); format: cell-based
Description: The compounds of the present invention were tested in vitro for their ability to induce contraction of smooth muscle strips isolated from rabbit small intestine using the following procedure:
Rabbits were sacrificed and 15 cm of duodenum was rapidly removed and placed in ice-cold modified Ringers solution (120 mM sodium chloride, 25 mM sodium bicarbonate, 4.7 mM potassium chloride, 1.25 mM calcium chloride, 1.20 mM magnesium sulfate and 5.6 mM glucose). The longitudinal muscle layer was separated from the circular muscle by blunt dissection and cut into strips of 10×20 mm. Double-folded strips were vertically suspended between two hooks in 10 mL tissue baths with a mechanical preload of 1 g. The upper hook was connected to an […] force transducer, and its displacement was recorded on a Grass polygraph. The tissue baths contained modified Ringers solution at 37° C. and were continuously gassed with 95% oxygen/5% carbon dioxide in order to maintain the pH at 7.5.
After a stabilization period of at least 60 minutes, a contractility dose-response series was performed by adding increasing final concentrations of methacholine (10^-7 M, 10^-6 M and 10^-5 M) in volumes of 100 μL. The bath solutions were replaced at least three times between doses.
After the methacholine dose-response series was completed, a test compound dose response curve was initiated by the same procedure used for the methacholine dose-response series, with at least five concentrations of test compound within the range of 10^-10 M to 10^-4 M. The tissues were washed repeatedly between doses, and the studies were completed by recording the contractile response to 10^-5 M methacholine to ascertain integrity of the muscle preparation. Contractile responses were expressed as percent of maximal methacholine induced contraction. The concentration of test compound which produces half of the maximal contraction (ED50 value) and the negative logarithm of the ED50 value (pED50) were estimated from the dose-response curves. The pED50 values were compared to motilin, (pED50 : 8.10) a known gastrointestinal prokinetic agent.

Escherichia coli SS = test: Antibacterial activity (agar dilution method), MIC; format: cell-based; details: unit assumed
Description: (§1) Compounds of the invention were next tested for antibacterial potency, such activity being regarded as an undesirable side effect of motilin […] therapy. Assays were conducted using methodology well-known in the art (the agar dilution method).

[2] = tested on: Pseudomonas eruginosa K799/WT; test: Antibacterial activity (agar dilution method), MIC; format: cell-based; details: unit assumed
Description: as §1

[3] = tested on: Streptococcus aureus A5177; test: Antibacterial activity (agar dilution method), MIC; format: cell-based; details: unit assumed
Description: as §1

[4] = tested on: Streptococcus aureus ATCC 7538P; test: Antibacterial activity (agar dilution method), MIC; format: cell-based; details: unit assumed
Description: as §1

[5] = tested on: Streptococcus bovis ATCC 8043; test: Antibacterial activity (agar dilution method), MIC; format: cell-based; details: unit assumed
Description: as §1

[6] = tested on: Streptococcus pyogenes EES61; test: Antibacterial activity (agar dilution method), MIC; format: cell-based; details: unit assumed
Description: as §1

motilin receptors = molecular target: T1, motilin receptors (Oryctolagus cuniculus, UniProt G1T803); test: Motilin receptor binding activity ([^125 I]-motilin displacement, rabbit antral smooth muscle)
T1 construct: Motilin receptors were isolated from rabbit antral smooth muscle tissue; from tissue; host or cells: rabbit antral smooth muscle tissue
Text: This ability of the compounds to bind strongly to motilin receptors and the effective absence of elicitation of contractile activity by estimated therapeutic concentration of these compounds in rabbit duodenal smooth muscle together constitute motilin antagonist activity of the compounds.

T1 sequence (G1T803 1-400): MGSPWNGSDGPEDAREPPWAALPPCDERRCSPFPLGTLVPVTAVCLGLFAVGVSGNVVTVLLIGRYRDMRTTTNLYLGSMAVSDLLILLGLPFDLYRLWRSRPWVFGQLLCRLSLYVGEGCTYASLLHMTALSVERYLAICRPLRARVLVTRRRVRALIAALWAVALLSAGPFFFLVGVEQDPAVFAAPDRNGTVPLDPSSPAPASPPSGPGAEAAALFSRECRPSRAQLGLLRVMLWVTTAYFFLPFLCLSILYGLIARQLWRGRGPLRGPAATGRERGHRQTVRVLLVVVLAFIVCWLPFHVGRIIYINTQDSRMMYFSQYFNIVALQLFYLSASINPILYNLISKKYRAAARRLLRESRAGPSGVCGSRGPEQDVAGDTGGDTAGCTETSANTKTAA

Structure (SMILES) | EC50 ([1]; Oryctolagus cuniculus, rabbit duodenum strips, 37° C., percent of maximal methacholine induced contraction, read-out: pED50 (negative logarithm of the concentration producing half of the maximal contraction) (converted)) | agonism for induction of contractile activity (in words) ([1]; rabbit duodenal smooth muscle) | potency relative to motilin, induction of contractile activity ([1]; rabbit duodenal smooth muscle, pED50 compared to motilin) | MIC (Escherichia coli SS) | MIC [2] | MIC [3] | MIC [4] | MIC [5] | MIC [6] | motilin receptor binding (in words) (motilin receptors; rabbit antral smooth muscle, [^125 I]-motilin) | Kd (motilin receptors; rabbit antral smooth muscle, [^125 I]-motilin, read-out: pKd, motilin binding (negative logarithm of the concentration displacing 50% of bound [^125 I]-motilin) (converted)) | pED50 (negative logarithm of the concentration producing half of the maximal contraction) ([1]; rabbit duodenum strips, 37° C., percent of maximal methacholine induced contraction) | Kd (motilin receptors)
CC[C@H]1OC(=O)[C@H](C)[C@@H](O[C@H]2C[C@@](C)(OC)C[C@H](C)O2)[C@H](C)[C@@H](O[C@@H]2O[C@H](C)C[C@H](N(C)CC)[C@H]2O)[C@@]2(C)CC(C)=C(O2)C(C(C)F)[C@H]1C (stereo partly shown) [Example 1, Compound of Formula (I); R=H; R^1 =methyl; R^2 =ethyl; R^3 =H; X=F] | > 100 µM | very weak agonist | more than four orders of magnitude less potent than motilin | > 100 µg/mL | > 100 µg/mL | 50 µg/mL | 50 µg/mL | 25 µg/mL | 25 µg/mL | binds strongly to motilin receptors | 0.0115 µM | – | –
CC[C@H]1OC(=O)[C@H](C)[C@@H](O[C@H]2C[C@@](C)(OC)[C@@H](O)[C@H](C)O2)[C@H](C)[C@@H](O[C@@H]2O[C@H](C)C[C@H](N(C)C)[C@H]2O)[C@](C)(O)C[C@@H](C)C(=O)[C@H](C)[C@@H](O)[C@]1(C)O [Erythromycin] | – | – | – | 0.39 µg/mL (≈ 0.531 µM) | 0.78 µg/mL (≈ 1.06 µM) | 6.2 µg/mL (≈ 8.45 µM) | 0.2 µg/mL (≈ 0.273 µM) | 0.05 µg/mL (≈ 0.0681 µM) | 0.05 µg/mL (≈ 0.0681 µM) | – | – | – | –
CC[C@H](C)[C@H](NC(=O)[C@@H]1CCCN1C(=O)[C@@H](NC(=O)[C@@H](N)Cc1ccccc1)C(C)C)C(=O)N[C@@H](Cc1ccccc1)C(=O)N[C@H](C(=O)N[C@@H](Cc1ccc(O)cc1)C(=O)NCC(=O)N[C@@H](CCC(=O)O)C(=O)N[C@@H](CC(C)C)C(=O)N[C@@H](CCC(N)=O)C(=O)N[C@@H](CCCNC(=N)N)C(=O)N[C@@H](CCSC)C(=O)N[C@@H](CCC(N)=O)C(=O)N[C@@H](CCC(=O)O)C(=O)N[C@@H](CCCCN)C(=O)N[C@@H](CCC(=O)O)C(=O)N[C@@H](CCCNC(=N)N)C(=O)N[C@@H](CC(N)=O)C(=O)N[C@@H](CCCCN)C(=O)NCC(=O)N[C@@H](CCC(N)=O)C(=O)O)[C@@H](C)O [motilin, reference compound] | – | – | – | – | – | – | – | – | – | – | – | 8.10 | 0.000794 µM

Reference: patent US5712253A, “Macrocyclic 13-membered ring derivatives of erythromycins A and B” (Abbott Laboratories, priority 1996, dated 1998)
